Series [1] has as its system acidic saline muscle pain model. As to the kind of experiment: Acidic saline muscle pain (fibromyalgia) model, muscle withdrawal threshold (MWT). It counts as in vivo, C57BL/6J mice. As to the method:
A SARM was tested its ability to alleviate pain using a model of fibromyalgia (Sluka et al., 2001). The model is induced by repeated injections of acidic saline into the gastrocnemius muscle, 5 days apart. After the second injection animals develop widespread pain behavior, termed hyperalgesia, that resolves in 4 weeks. Pain-behaviors are tested by using a device to apply deep pressure to the gastrocnemius muscle; withdrawal from this pressure is considered a pain-response.
Pain was induced using the model after which daily administration of SARMs or a vehicle was performed for 4 weeks. Withdrawal thresholds of the muscle were tested before and after induction of the model, and weekly after administration of the SARM. A decrease in withdrawal threshold is interpreted as increased pain sensitivity or hyperalgesia. […] Daily administration is clinically cumbersome and results in lower adherence to the treatment and so a long acting SARM containing microparticle formulation was developed to treat pain, e.g., chronic pain.
(§1) A decrease in MWT was interpreted as muscle hyperalgesia.
The SARM, (s)-3-(4-cyanophenoxy)-n-(4-cyano-3-(trifluoromethyl)phenyl)-2-hydroxy-2-methylpropanamide (Achemblock, San Francisco, CA, USA), was used in the following experiments. To test for the analgesic effects of SARM the acidic saline muscle pain model was induced and the presence of hyperalgesia 24 hours after model induction was confirmed. Animals then received daily subcutaneous injections of either SARM or vehicle for the next 4 weeks. For SARM administration, the drug was dissolved in dimethyl sulfoxide (DMSO; Fisher Scientific, Waltham, MA, USA) at a concentration of 50 mg/ml and then diluted in polyethylene glycol 300 (PEG300; Med Lab Supply, Pompano Beach, FL, USA) until a final solution of 10 mg/ml in 80:20 PEG300:DMSO was achieved. Animals were anesthetized with 2-4% isoflurane and SARM (25 mg/kg) or vehicle were delivered subcutaneously. This dose was chosen based on prior literature which found greatest effect at this dose (Gao et al., 2004). […]

The test system is the same in series [2]. Description: Acidic saline muscle pain model, paw allodynia by von Frey monofilament. It counts as in vivo, C57BL/6J mice. The note with it: daily SARM 25 mg/kg s.c. for 4 weeks vs vehicle; ipsilateral and contralateral paw.
Text: as §1

The subject of another series is C57BL/6J mice. Description: Rewarding behavior, condition place preference testing. It counts as in vivo. Particulars: SARM 25 mg/kg s.c. daily for 5 days. An excerpt: To test if SARM produced rewarding behavior condition place preference testing was employed using a 9-day testing paradigm. The boxes used for testing were 27.5″ by 8.25″ divided into two 10.75″ by 8.25″ pairing chambers and a 4.75″ by 8.25″ middle chamber. The pairing chambers had different colored walls (solid black vs black and white stripe) and floor textures (smooth vs ridged). The middle chamber had solid black walls with smooth floors and was illuminated. Acclimation and baseline testing occurred over the first 3 days. Animals were placed in boxes with access to all 3 chambers for 15 minutes. On the third day, time spent in each box was recorded. Drug pairing then occurred for 5 days on days 4 through 8. Each day, animals were injected subcutaneously with SARM vehicle (80:20; PEG300:DMSO) and placed in a pairing chamber for 60 minutes. Animals were then returned to their home cages. Four hours later animals were subcutaneously injected with SARM (25 mg/kg) and were confined to the opposite pairing chamber for 60 minutes. Chamber pairings were counterbalanced amongst animals. Following pairing, on day 9, animals were placed in boxes with access to all 3 chambers for 15 minutes with time spent in each box recorded. In order to determine if rewarding behavior was present, the amount of time spent in SARM paired chambers was compared between baseline and post drug pairing.

Entries after “also recorded” stand apart in the source; their conditions may differ.

As for `C[C@](O)(COc1ccc(C#N)cc1)C(=O)Nc1ccc(C#N)c(C(F)(F)F)c1` [SARM, (s)-3-(4-cyanophenoxy)-n-(4-cyano-3-(trifluoromethyl)phenyl)-2-hydroxy-2-methylpropanamide], in series [1] (Example 1), the “effect on hyperalgesia in male versus female mice” value was “worked equally in male and female mice”. Also, the “withdrawal thresholds of the gastrocnemius muscle (pain thresholds, muscle hyperalgesia)” value in series [1] (Example 1: daily administration of free SARM for 4 weeks vs vehicle, left and right muscle) is “higher pain thresholds than those receiving vehicle treatment; also recorded: reversed muscle hyperalgesia”. Also, the “muscle hyperalgesia measured via muscle withdrawal threshold (MWT)” value in series [1] (daily SARM 25 mg/kg s.c. for 4 weeks vs vehicle, ipsilateral and contralateral limb) is “alleviated decreased MWT bilaterally in both sexes; also recorded: significant reversal in muscle hyperalgesia; also recorded: reversed muscle hyperalgesia”. In addition, the “paw allodynia / paw hypersensitivity (von Frey number of responses)” value in series [2] is “no effect on paw allodynia; also recorded: unable to alleviate paw hypersensitivity”. For the same molecule, the “preference for SARM paired chamber (reward like behavior)” value in the series with C57BL/6J mice (baseline vs post drug pairing) is recorded as “did not show an increased preference for the SARM paired chamber; also recorded: no preference for the SARM paired chamber”. For the same molecule, the “time spent in SARM paired chamber, post drug pairing” value with C57BL/6J mice (baseline 380.3±51.0 sec, mean±SEM) stood at 385.7 ± 37.1 s.

These data come from patent US20240293322A1, “SUSTAINED RELEASE FORMULATIONS COMPRISING A SELECTIVE ANDROGEN RECEPTOR MODULATOR” (University of Iowa Research Foundation, priority 2021, published 2024).
